In publication PMC5218480 (PLoS ONE, 2017):

System: MV-4-11 cells
Assay: Gene expression microarray analysis (Affymetrix PrimeView) and GSEA
Type: cell-based, human
Parameters: RFU PODN (11730768_x_at) / Fold change /veh PODN (11730768_x_at) / RFU LINC00158 (11744669_a_at) / Fold change /veh LINC00158 (11744669_a_at) / RFU DUSP10 (11751237_a_at) / Fold change /veh DUSP10 (11751237_a_at) / RFU ID3 (11757404_x_at) / Fold change /veh ID3 (11757404_x_at) / RFU PLEKHG5 (11737974_s_at) / Fold change /veh PLEKHG5 (11737974_s_at) / RFU LRRC4B (11730491_at) / Fold change /veh LRRC4B (11730491_at) / RFU GIMAP4 (11747438_a_at) / Fold change /veh GIMAP4 (11747438_a_at) / RFU KRT8 (11758183_x_at) / Fold change /veh KRT8 (11758183_x_at) / RFU CNN1 (11734310_a_at) / Fold change /veh CNN1 (11734310_a_at) / RFU VPS37D (11726825_at) / Fold change /veh VPS37D (11726825_at) / RFU C10orf10 (11716522_x_at) / Fold change /veh C10orf10 (11716522_x_at) / RFU KIR2DL2 /// KIR2DL4 /// KIR2DL5A /// KIR2DL5B /// KIR2DS1 /// KIR2DS2 /// KIR2DS3 /// KIR2DS4 /// KIR3DL3 /// KIR3DL3 /// KIR3DS1 (11738374_at) / Fold change /veh KIR2DL2 /// KIR2DL4 /// KIR2DL5A /// KIR2DL5B /// KIR2DS1 /// KIR2DS2 /// KIR2DS3 /// KIR2DS4 /// KIR3DL3 /// KIR3DL3 /// KIR3DS1 (11738374_at) / RFU C1QL1 (11718748_at) / Fold change /veh C1QL1 (11718748_at) / RFU TMPRSS4 (11747572_a_at) / Fold change /veh TMPRSS4 (11747572_a_at) / RFU HAMP (11756126_x_at) / Fold change /veh HAMP (11756126_x_at) / RFU RNFT2 (11725882_a_at) / Fold change /veh RNFT2 (11725882_a_at) / RFU NR4A2 (11747474_a_at) / Fold change /veh NR4A2 (11747474_a_at) / RFU ABCC12 (11746883_a_at) / Fold change /veh ABCC12 (11746883_a_at) / RFU TMEM136 (11760407_x_at) / Fold change /veh TMEM136 (11760407_x_at) / RFU CLDN22 /// WWC2 (11732394_at) / Fold change /veh CLDN22 /// WWC2 (11732394_at) / RFU HLA-DPB1 (11760878_x_at) / Fold change /veh HLA-DPB1 (11760878_x_at) / RFU SPINT1 (11716480_a_at) / Fold change /veh SPINT1 (11716480_a_at) / RFU GAP43 (11754022_s_at) / Fold change /veh GAP43 (11754022_s_at) / RFU A4GNT (11735810_at) / Fold change /veh A4GNT (11735810_at) / RFU PRB3 (11715151_x_at) / Fold change /veh PRB3 (11715151_x_at) / RFU TUBB4B (11761932_at) / Fold change /veh TUBB4B (11761932_at) / RFU CAPN14 (11732068_a_at) / Fold change /veh CAPN14 (11732068_a_at) / RFU TMCC2 (11721928_a_at) / Fold change /veh TMCC2 (11721928_a_at) / RFU IRGQ (11745062_a_at) / Fold change /veh IRGQ (11745062_a_at) / RFU FAM174B (11720279_a_at) / Fold change /veh FAM174B (11720279_a_at) / RFU TMPRSS4 (11748680_a_at) / Fold change /veh TMPRSS4 (11748680_a_at) / RFU FAM212B (11763350_a_at) / Fold change /veh FAM212B (11763350_a_at) / RFU PLEKHG5 (11743358_a_at) / Fold change /veh PLEKHG5 (11743358_a_at) / RFU ZSCAN30 (11745921_a_at) / Fold change /veh ZSCAN30 (11745921_a_at) / RFU CMKLR1 (11741424_a_at) / Fold change /veh CMKLR1 (11741424_a_at) / RFU LOC101060620 /// MAPK8IP1 (11723275_at) / Fold change /veh LOC101060620 /// MAPK8IP1 (11723275_at) / RFU SPTSSB (11747773_x_at) / Fold change /veh SPTSSB (11747773_x_at) / RFU PRSS12 (11739890_at) / Fold change /veh PRSS12 (11739890_at) / RFU BIN1 (11741810_x_at) / Fold change /veh BIN1 (11741810_x_at) / RFU WNT11 (11732464_a_at) / Fold change /veh WNT11 (11732464_a_at) / RFU C10orf10 (11716521_a_at) / Fold change /veh C10orf10 (11716521_a_at) / RFU C5orf56 (11738089_at) / Fold change /veh C5orf56 (11738089_at) / RFU CYB561 (11721691_x_at) / Fold change /veh CYB561 (11721691_x_at) / RFU ANKRD19P (11752326_a_at) / Fold change /veh ANKRD19P (11752326_a_at) / RFU OR2T12 /// OR2T33 /// OR2T8 (11738714_s_at) / Fold change /veh OR2T12 /// OR2T33 /// OR2T8 (11738714_s_at) / RFU VCAN (11748164_a_at) / Fold change /veh VCAN (11748164_a_at) / RFU JSRP1 (11732532_at) / Fold change /veh JSRP1 (11732532_at) / RFU KRTAP10-11 (11738290_x_at) / Fold change /veh KRTAP10-11 (11738290_x_at) / RFU MYO3A (11730013_a_at) / Fold change /veh MYO3A (11730013_a_at) / RFU EBF3 (11725865_a_at) / Fold change /veh EBF3 (11725865_a_at) / RFU CAMK2N1 (11719241_x_at) / Fold change /veh CAMK2N1 (11719241_x_at) / RFU C5orf56 (11738088_a_at) / Fold change /veh C5orf56 (11738088_a_at) / RFU OLFML3 (11715873_a_at) / Fold change /veh OLFML3 (11715873_a_at) / RFU LOC100653217 /// NTM (11731650_a_at) / Fold change /veh LOC100653217 /// NTM (11731650_a_at) / RFU MAPK11 (11762145_a_at) / Fold change /veh MAPK11 (11762145_a_at) / RFU FIZ1 (11724087_x_at) / Fold change /veh FIZ1 (11724087_x_at) / RFU OASL (11726364_x_at) / Fold change /veh OASL (11726364_x_at) / RFU SOX15 (11748057_x_at) / Fold change /veh SOX15 (11748057_x_at) / RFU CD79A (11719716_a_at) / Fold change /veh CD79A (11719716_a_at) / RFU HIST1H1D (11736915_at) / Fold change /veh HIST1H1D (11736915_at) / RFU CASKIN2 (11723855_a_at) / Fold change /veh CASKIN2 (11723855_a_at) / RFU LOC730098 (11760151_x_at) / Fold change /veh LOC730098 (11760151_x_at) / RFU OR4N2 (11742367_at) / Fold change /veh OR4N2 (11742367_at) / RFU PRRT2 (11749266_a_at) / Fold change /veh PRRT2 (11749266_a_at) / RFU SNX32 (11753110_a_at) / Fold change /veh SNX32 (11753110_a_at) / RFU CDHR5 (11726645_a_at) / Fold change /veh CDHR5 (11726645_a_at) / RFU RCAN1 (11760418_a_at) / Fold change /veh RCAN1 (11760418_a_at) / RFU FAM167A (11723789_a_at) / Fold change /veh FAM167A (11723789_a_at) / RFU FAM26E (11764081_at) / Fold change /veh FAM26E (11764081_at) / RFU ISYNA1 (11749810_s_at) / Fold change /veh ISYNA1 (11749810_s_at) / RFU ACY1 (11761880_at) / Fold change /veh ACY1 (11761880_at) / RFU 11764098_at / Fold change /veh 11764098_at / RFU SAMD14 (11745864_x_at) / Fold change /veh SAMD14 (11745864_x_at) / RFU NPB (11741838_a_at) / Fold change /veh NPB (11741838_a_at) / RFU TMPRSS6 (11731388_a_at) / Fold change /veh TMPRSS6 (11731388_a_at) / RFU KRTAP10-2 (11738614_at) / Fold change /veh KRTAP10-2 (11738614_at) / RFU ARHGAP8 /// PRR5-ARHGAP8 (11727945_x_at) / Fold change /veh ARHGAP8 /// PRR5-ARHGAP8 (11727945_x_at) / RFU KRTAP5-7 /// NADSYN1 (11734609_at) / Fold change /veh KRTAP5-7 /// NADSYN1 (11734609_at) / RFU RASL12 (11751679_a_at) / Fold change /veh RASL12 (11751679_a_at) / RFU CDKN2B (11736163_a_at) / Fold change /veh CDKN2B (11736163_a_at) / RFU PRF1 (11729649_at) / Fold change /veh PRF1 (11729649_at) / RFU, ZNF638 /// ZNF638-IT1 / Fold change vs veh, ZNF638 /// ZNF638-IT1 / RFU, PANK3 / Fold change vs veh, PANK3 / RFU, SH3YL1 / Fold change vs veh, SH3YL1 / RFU, ZEB2 / Fold change vs veh, ZEB2 / RFU, NRIP1 / Fold change vs veh, NRIP1 / RFU, PTTG1IP / Fold change vs veh, PTTG1IP / RFU, CAPN2 / Fold change vs veh, CAPN2 / RFU, MED14 / Fold change vs veh, MED14 / RFU, SNORA58 / Fold change vs veh, SNORA58 / RFU, C1orf63 / Fold change vs veh, C1orf63 / RFU, LRRFIP1 / Fold change vs veh, LRRFIP1 / RFU, NDUFAF7 / Fold change vs veh, NDUFAF7 / RFU, SLC12A2 / Fold change vs veh, SLC12A2 / RFU, IBTK / Fold change vs veh, IBTK / RFU, ESF1 / Fold change vs veh, ESF1 / Fold change vs veh, TMEM50B / RFU, TAOK1 / Fold change vs veh, TAOK1 / RFU, ACBD3 / Fold change vs veh, ACBD3 / RFU, TMA16 / Fold change vs veh, TMA16 / RFU, RWDD3 / Fold change vs veh, RWDD3 / RFU, BCAT1 / Fold change vs veh, BCAT1 / RFU, EDEM3 / Fold change vs veh, EDEM3 / RFU, TMEM33 / Fold change vs veh, TMEM33 / RFU, WDR75 / Fold change vs veh, WDR75 / RFU, AHCTF1 / Fold change vs veh, AHCTF1 / RFU, TFRC / Fold change vs veh, TFRC / RFU, ZDHHC17 / Fold change vs veh, ZDHHC17 / RFU, NOM1 / Fold change vs veh, NOM1 / RFU, ARL8B / Fold change vs veh, ARL8B / RFU, ZBTB11 / Fold change vs veh, ZBTB11 / RFU, TAMM41 / Fold change vs veh, TAMM41 / RFU, KIAA1704 /// LOC100996395 / Fold change vs veh, KIAA1704 /// LOC100996395 / RFU, ING1 / Fold change vs veh, ING1 / RFU, TRMT61B / Fold change vs veh, TRMT61B / RFU, FUBP3 / Fold change vs veh, FUBP3 / RFU, TP53 / Fold change vs veh, TP53 / RFU, TNKS2 / Fold change vs veh, TNKS2 / RFU, ZFP14 / Fold change vs veh, ZFP14 / RFU, ACTR2 / Fold change vs veh, ACTR2 / RFU, PPP3R1 / Fold change vs veh, PPP3R1 / RFU, PIK3R1 / Fold change vs veh, PIK3R1 / RFU, HNRNPA1 / Fold change vs veh, HNRNPA1 / RFU, RNF170 / Fold change vs veh, RNF170 / RFU, ZNF28 / Fold change vs veh, ZNF28 / RFU, RNGTT / Fold change vs veh, RNGTT / RFU, OGT / Fold change vs veh, OGT / RFU, BRD1 / Fold change vs veh, BRD1 / RFU, MARS / Fold change vs veh, MARS / RFU, ZNF655 / Fold change vs veh, ZNF655 / RFU, FAHD1 / Fold change vs veh, FAHD1 / RFU, BDP1 / Fold change vs veh, BDP1 / RFU, LRRCC1 / Fold change vs veh, LRRCC1 / RFU, ARID1A / Fold change vs veh, ARID1A / RFU, ZNF146 / Fold change vs veh, ZNF146 / RFU, ZNF330 / Fold change vs veh, ZNF330 / RFU, GPN3 / Fold change vs veh, GPN3 / RFU, C9orf123 / Fold change vs veh, C9orf123 / RFU, N4BP2L2 / Fold change vs veh, N4BP2L2 / RFU, ARFIP1 / Fold change vs veh, ARFIP1 / RFU, FAM179B / Fold change vs veh, FAM179B / RFU, BCL10 / Fold change vs veh, BCL10 / RFU, UHRF1BP1L / Fold change vs veh, UHRF1BP1L / RFU, BET1 / Fold change vs veh, BET1 / RFU, CNOT2 / Fold change vs veh, CNOT2 / RFU, ZNF268 / Fold change vs veh, ZNF268 / Fold change vs veh, ZNF507 / RFU, DGCR2 / Fold change vs veh, DGCR2 / RFU, WDSUB1 / Fold change vs veh, WDSUB1 / Fold change vs veh, HSP90B1 /// MIR3652 / RFU, ADSS / Fold change vs veh, ADSS / RFU, GK / Fold change vs veh, GK / RFU, ZNF148 / Fold change vs veh, ZNF148 / RFU, TAF9 / Fold change vs veh, TAF9 / RFU, SLC1A5 / Fold change vs veh, SLC1A5 / RFU, SLMO2 / Fold change vs veh, SLMO2 / RFU, ABCC4 / Fold change vs veh, ABCC4 / RFU, LOC101060439 /// RAP1B / Fold change vs veh, LOC101060439 /// RAP1B / RFU, RFX7 / Fold change vs veh, RFX7 / RFU, GTPBP10 / Fold change vs veh, GTPBP10 / RFU, CNEP1R1 / Fold change vs veh, CNEP1R1 / RFU, BIVM-ERCC5 /// ERCC5 / Fold change vs veh, BIVM-ERCC5 /// ERCC5 / RFU, ILF3 / Fold change vs veh, ILF3 / RFU 11762660_at / Fold change /veh 11762660_at / RFU VCAN (11757783_s_at) / Fold change /veh VCAN (11757783_s_at) / RFU DDX43 (11728927_at) / Fold change /veh DDX43 (11728927_at) / RFU KRT8 (11758188_x_at) / Fold change /veh KRT8 (11758188_x_at) / RFU NKD1 (11759106_at) / Fold change /veh NKD1 (11759106_at) / RFU SRD5A1 (11742802_a_at) / Fold change /veh SRD5A1 (11742802_a_at) / RFU TPSAB1 /// TPSB2 (11721975_s_at) / Fold change /veh TPSAB1 /// TPSB2 (11721975_s_at) / RFU GSTM3 (11746129_a_at) / Fold change /veh GSTM3 (11746129_a_at) / RFU IL23R (11737362_x_at) / Fold change /veh IL23R (11737362_x_at) / RFU TMEM51 (11727254_a_at) / Fold change /veh TMEM51 (11727254_a_at) / RFU PIWIL2 (11732686_x_at) / Fold change /veh PIWIL2 (11732686_x_at) / RFU ORM1 (11744905_x_at) / Fold change /veh ORM1 (11744905_x_at) / RFU CCDC152 (11743942_at) / Fold change /veh CCDC152 (11743942_at) / RFU ECM1 (11717891_a_at) / Fold change /veh ECM1 (11717891_a_at) / RFU IL23R (11748794_a_at) / Fold change /veh IL23R (11748794_a_at) / RFU TNFAIP8L3 (11732012_x_at) / Fold change /veh TNFAIP8L3 (11732012_x_at) / RFU MBOAT4 (11741988_at) / Fold change /veh MBOAT4 (11741988_at) / RFU 11764193_at / Fold change /veh 11764193_at / RFU TMEM53 (11763286_at) / Fold change /veh TMEM53 (11763286_at) / RFU MAGEB2 (11727129_at) / Fold change /veh MAGEB2 (11727129_at) / RFU TMEM200A (11744735_a_at) / Fold change /veh TMEM200A (11744735_a_at) / RFU CCDC152 (11751479_a_at) / Fold change /veh CCDC152 (11751479_a_at) / RFU FAM211A (11726209_a_at) / Fold change /veh FAM211A (11726209_a_at) / RFU RGS16 (11746705_a_at) / Fold change /veh RGS16 (11746705_a_at) / RFU VCAN (11755009_s_at) / Fold change /veh VCAN (11755009_s_at) / RFU RHOB (11743442_s_at) / Fold change /veh RHOB (11743442_s_at) / RFU RGS16 (11720943_a_at) / Fold change /veh RGS16 (11720943_a_at) / RFU RGS16 (11720944_at) / Fold change /veh RGS16 (11720944_at) / RFU, VPS4B / Fold change vs veh, VPS4B / RFU, CREB1 / Fold change vs veh, CREB1 / RFU, DNAJC13 / Fold change vs veh, DNAJC13 / RFU, GNAQ / Fold change vs veh, GNAQ / RFU, CDK5R1 / Fold change vs veh, CDK5R1 / RFU, ZRANB3 / Fold change vs veh, ZRANB3 / RFU, CUL4A / Fold change vs veh, CUL4A / RFU, CCNY / Fold change vs veh, CCNY / RFU, UFL1 / Fold change vs veh, UFL1 / RFU, COG3 / Fold change vs veh, COG3 / RFU, DIAPH2 / Fold change vs veh, DIAPH2 / RFU, SKA2 / Fold change vs veh, SKA2 / RFU, AFF3 / Fold change vs veh, AFF3 / RFU, LMF1 / Fold change vs veh, LMF1 / RFU, IPO11 / Fold change vs veh, IPO11 / RFU, DFFB / Fold change vs veh, DFFB / RFU, FOXP1 / Fold change vs veh, FOXP1 / RFU, CARD8 / Fold change vs veh, CARD8 / RFU, STRN3 / Fold change vs veh, STRN3 / RFU, ADK / Fold change vs veh, ADK / RFU, RASSF2 / Fold change vs veh, RASSF2 / RFU, WIPF1 / Fold change vs veh, WIPF1 / RFU, LARP1B / Fold change vs veh, LARP1B / RFU, RASA1 / Fold change vs veh, RASA1 / RFU, RB1 / Fold change vs veh, RB1 / RFU, PPFIA1 / Fold change vs veh, PPFIA1 / RFU, MAT2A / Fold change vs veh, MAT2A / RFU, CCT5 / Fold change vs veh, CCT5 / RFU, WDR92 / Fold change vs veh, WDR92 / RFU, CUX1 / Fold change vs veh, CUX1 / RFU, TTC7A / Fold change vs veh, TTC7A / RFU, TMEM135 / Fold change vs veh, TMEM135 / RFU, DEPTOR / Fold change vs veh, DEPTOR / RFU, CPM / Fold change vs veh, CPM / RFU, DNAJB6 / Fold change vs veh, DNAJB6 / RFU, CACNA2D3 / Fold change vs veh, CACNA2D3 / RFU, DTX4 / Fold change vs veh, DTX4 / RFU, TFCP2 / Fold change vs veh, TFCP2 / RFU, GMCL1 /// GMCL1P1 / Fold change vs veh, GMCL1 /// GMCL1P1 / RFU, AEBP2 / Fold change vs veh, AEBP2 / RFU, SNHG1 /// SNORD22 /// SNORD25 /// SNORD26 /// SNORD27 /// SNORD28 /// SNORD29 /// SNORD31 / Fold change vs veh, SNHG1 /// SNORD22 /// SNORD25 /// SNORD26 /// SNORD27 /// SNORD28 /// SNORD29 /// SNORD31 / Fold change (Aza/veh), C12orf56 (ProbeSet 11735607_a_at) / Fold change (ACY-1035/veh), C12orf56 (ProbeSet 11735607_a_at) / Fold change (Aza/veh), FGFR1OP (ProbeSet 11751329_s_at) / Fold change (ACY-1035/veh), FGFR1OP (ProbeSet 11751329_s_at) / Fold change (Aza/veh), VPS36 (ProbeSet 11739960_a_at) / Fold change (ACY-1035/veh), VPS36 (ProbeSet 11739960_a_at) / RFU SYPL1 (11715823_x_at) / Fold change /veh SYPL1 (11715823_x_at) / RFU IGFBP7 (11715501_s_at) / Fold change /veh IGFBP7 (11715501_s_at) / RFU REEP3 (11722064_at) / Fold change /veh REEP3 (11722064_at) / RFU IGLL1 (11728026_x_at) / Fold change /veh IGLL1 (11728026_x_at): dose or concentration left out as unconfirmed
Settings: ProbeSet 11739696_s_at; LIST D

Compound: Nc1ccc(-c2cccs2)cc1NC(=O)c1ccc2c(c1)cc(C1CC1)n2CCN1CCOCC1 [ACY-1035]
- RFU, AFF3: 669.34 RFU
